# Source: patent publication US11566030B2, “Substituted 2,6-dihydropyrrolo[3,4-c]pyrazoles as pyruvate kinase activators” (priority 2021, dated 2023)
# Like-named read-outs stand apart in the source and are kept apart here.
# Target: T1, Human pyruvate kinase R (PKR) (Homo sapiens, UniProt P30613)
# T1 construct: Human pyruvate kinase R (PKR), residues 14-574; 6xHis-8xArg-SUMO (N, cleaved yes); host or cells: E. coli
# Assay: Biochemical assay for activation of pyruvate kinase R (Kinase-Glo luminescence, ATP generation)
# Conditions: for Emax: read-out: PKR % activation, maximal activation level achieved with each compound relative to the activation level achieved by AG-348 @ 10 μM
# Protocol: Human pyruvate kinase R (PKR), residues 14-574, and human pyruvate kinase M2, residues 1-531, were cloned into expression plasmids and obtained from ATUM Bio (Newark, Calif.). Proteins were translated as fusions with 6×-His,8×-Arg, and SUMO at the N-terminus. A third construct of human PKR was truncated, residues 50-574, and similarly cloned for use in crystallography experiments. All proteins were cloned, expressed in E. coli, and purified using similar protocols. Cells were grown at 30° C. in Luria-Bertani broth supplemented with 0.4% glucose to OD600=0.8 and induced with 0.4 mM IPTG at 16° C. for 18 hours. Cells were harvested by centrifugation, resuspended in 50 mM potassium phosphate pH 8.0, 500 mM NaCl, 25 mM imidazole pH 8.0, and 3 mM β-mercaptoethanol. Cells were lysed using a LM20 microfluidizer from Microfluidics (Westwood, Mass.). The crude lysate was immediately supplemented with 0.2 mM phenylmethylsulfonyl fluoride (PMSF) and centrifuged at 20,000 g for 20 minutes. The soluble fraction was subsequently incubated with 2 mL Ni-NTA (GE Healthcare) per 1,000 ODs for 1 hour at 4° C. Following incubation with the Ni-NTA resin, lysate was removed by pelleting resin at 2,500 g for 3 minutes and washed 3 times with 9 bed volumes of 50 mM potassium phosphate pH 8.0, 500 mM NaCl, 25 mM imidazole, and 3 mM β-mercaptoethanol. Following the batch wash Ni-NTA resin was loaded onto a gravity column and His-tagged protein was eluted with 6 bed volumes of 10 mM Tris/HCl pH 8.0, 200 mM NaCl, 500 mM imidazole, and 3 mM β-mercaptoethanol. Eluted protein was dialyzed overnight against 10 mM Tris/HCl pH 8.0, 200 mM NaCl, and 1 mM DTT and the 6×-His-8×-Arg-SUMO-tag was cleaved using a 20:1 molar ratio of protein: 3C protease. The protein was purified by anion exchange chromatography on a HiTrapQ or MonoQ 10/100 GL column (GE Healthcare) via a linear NaCl gradient and twice by size exclusion chromatography using a Superdex S200 26/60 column (GE Healthcare) run in 10 mM Tris/HCl pH 8.0, 200 mM NaCl, 10 mM MgCl2, 1 mM DTT. Proteins were concentrated to −12 mg/mL for crystallization and flash frozen for storage.
# Biochemical assay for Activation of Pyruvate Kinase R
# Activation of pyruvate kinase R (PKR) and pyruvate kinase M2 (PKM2) were measured using a luminescence based measurement of ATP generation and the Kinase-Glo luminescent kinase reagent kit.
# [1] = PKR AC50 (nM), 0.1 nM PKR, 0.3 mM ADP, 0.1 mM PEP, 1% DMSO
# T1 sequence (P30613 14-574): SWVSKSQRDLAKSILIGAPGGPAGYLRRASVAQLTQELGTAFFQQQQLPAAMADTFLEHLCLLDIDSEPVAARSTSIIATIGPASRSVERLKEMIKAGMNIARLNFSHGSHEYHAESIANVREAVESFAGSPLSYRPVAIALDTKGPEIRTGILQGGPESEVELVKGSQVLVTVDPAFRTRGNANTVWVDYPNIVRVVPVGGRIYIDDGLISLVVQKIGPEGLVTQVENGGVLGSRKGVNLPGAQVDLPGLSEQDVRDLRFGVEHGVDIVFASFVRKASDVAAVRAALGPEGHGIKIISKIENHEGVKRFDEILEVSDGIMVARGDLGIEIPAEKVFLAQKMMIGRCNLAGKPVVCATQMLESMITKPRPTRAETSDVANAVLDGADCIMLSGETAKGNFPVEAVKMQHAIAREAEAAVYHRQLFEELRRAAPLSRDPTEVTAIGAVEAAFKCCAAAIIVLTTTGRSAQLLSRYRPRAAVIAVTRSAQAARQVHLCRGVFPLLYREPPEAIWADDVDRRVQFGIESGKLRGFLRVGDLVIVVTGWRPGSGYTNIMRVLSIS
AC50 [1] [nM],Emax [%],AC50 [nM],Structure (SMILES)
50,85,–,"O=C([C@H](CO)c1ccccc1Cl)N1Cc2cn(S(=O)(=O)c3ccn(CC(F)(F)F)n3)nc2C1 [Compound 63, (2S)-2-(2-chlorophenyl)-3-hydroxy-1-[2-[1-(2,2,2-trifluoroethyl)pyrazol-3-ylsulfonyl]-4H,6H-pyrrolo[3,4-c]pyrazol-5-yl]propan-1-one]"
–,33,550,"Cc1cn(CC(F)F)nc1S(=O)(=O)n1cc2c(n1)CN(C(=O)[C@@H](CO)c1ccccc1F)C2 [Compound 79, (2R)-1-{2-[1-(2,2-difluoroethyl)-4-methylpyrazol-3-ylsulfonyl]-4H,6H-pyrrolo[3,4-c]pyrazol-5-yl}-2-(2-fluorophenyl)-3-hydroxypropan-1-one]"
–,55,1600,"O=C([C@@H](CO)c1ccccc1F)N1Cc2cn(S(=O)(=O)c3cnn(CCC(F)(F)F)c3)nc2C1 [Compound 59, (R)-2-(2-fluorophenyl)-3-hydroxy-1-(2-((1-(3,3,3-trifluoropropyl)-1H-pyrazol-4-yl)sulfonyl)-2,6-dihydropyrrolo[3,4-c]pyrazol-5(4H)-yl)propan-1-one]"
210,189,–,"CCc1ccccc1[C@H](CO)C(=O)N1Cc2cn(S(=O)(=O)c3cnn(CC(F)F)c3)nc2C1 [Compound 106, (R)-1-(2-((1-(2,2-difluoroethyl)-1H-pyrazol-4-yl)sulfonyl)-2,6-dihydropyrrolo[3,4-c]pyrazol-5(4H)-yl)-2-(2-ethylphenyl)-3-hydroxypropan-1-one]"
–,7,720,"Cc1nc(CCC(F)(F)F)sc1S(=O)(=O)n1cc2c(n1)CN(C(=O)[C@H](CO)c1ccccc1)C2 [Compound 20, (2S)-3-hydroxy-1-(2-{[4-methyl-2-(3,3,3-trifluoropropyl)-1,3-thiazol-5-yl]sulfonyl}-2H,4H,5H,6H-pyrrolo[3,4-c]pyrazol-5-yl)-2-phenylpropan-1-one]"
–,146,37,"O=C([C@@H](CO)c1ccccc1OCCO)N1Cc2cn(S(=O)(=O)c3cnn(CC(F)F)c3)nc2C1 (single isomer, unassigned) [Compound 110]"
2100,9,–,"Cc1cn(CC(F)(F)F)nc1S(=O)(=O)n1cc2c(n1)CN(C(=O)[C@H](CO)c1ccccc1F)C2 [Compound 68, (2S)-2-(2-fluorophenyl)-3-hydroxy-1-{2-[4-methyl-1-(2,2,2-trifluoroethyl)pyrazol-3-ylsulfonyl]-4H,6H-pyrrolo[3,4-c]pyrazol-5-yl}propan-1-one]"
0.51,16,–,"Cc1cn(CC(F)F)nc1S(=O)(=O)n1cc2c(n1)CN(C(=O)[C@@H](CO)c1ccccc1)C2 [Compound 77, (2R)-1-{2-[1-(2,2-difluoroethyl)-4-methylpyrazol-3-ylsulfonyl]-4H,6H-pyrrolo[3,4-c]pyrazol-5-yl}-3-hydroxy-2-phenylpropan-1-one]"
–,93,6.4,Cc1c(S(=O)(=O)n2cc3c(n2)CN(C(=O)[C@H](CO)c2ccccc2F)C3)cnn1CCF [Compound 96]
410,100,–,"Cc1c(S(=O)(=O)n2cc3c(n2)CN(C(=O)[C@@H](CO)c2ccccc2Cl)C3)cnn1CCF [Compound 99, (2R)-2-(2-chlorophenyl)-1-{2-[1-(2-fluoroethyl)-5-methylpyrazol-4-ylsulfonyl]-4H,6H-pyrrolo[3,4-c]pyrazol-5-yl}-3-hydroxypropan-1-one]"
72,70,–,"O=C([C@H](CO)c1ccccc1)N1Cc2cn(S(=O)(=O)c3ccc(-c4ccccc4)s3)nc2C1 [Compound 18, (2S)-3-hydroxy-2-phenyl-1-{2-[(5-phenylthiophen-2-yl)sulfonyl]-2H,4H,5H,6H-pyrrolo[3,4-c]pyrazol-5-yl}propan-1-one]"
71,113,–,"C[C@@H](O)[C@@H](C(=O)N1Cc2cn(S(=O)(=O)c3cnn(CC(F)(F)F)c3)nc2C1)c1ccccc1 [Compound 49, (2S,3R)-3-hydroxy-2-phenyl-1-{2-[1-(2,2,2-trifluoroethyl)pyrazol-4-ylsulfonyl]-4H,6H-pyrrolo[3,4-c]pyrazol-5-yl}butan-1-one]"
440,72,–,"O=C([C@@H](CO)c1cccc(F)c1F)N1Cc2cn(S(=O)(=O)c3cnn(CC(F)(F)F)c3)nc2C1 [Compound 74, (2R)-2-(2,3-difluorophenyl)-3-hydroxy-1-{2-[1-(2,2,2-trifluoroethyl)pyrazol-4-ylsulfonyl]-4H,6H-pyrrolo[3,4-c]pyrazol-5-yl}propan-1-one]"
29,108,–,"O=C([C@@H](CO)c1ncccc1F)N1Cc2cn(S(=O)(=O)c3cnn(CC(F)F)c3)nc2C1 (single isomer, unassigned) [Compound 43]"
3900,30,–,"Cc1cn(CC(F)(F)F)nc1S(=O)(=O)n1cc2c(n1)CN(C(=O)[C@@H](CO)c1ccccc1Cl)C2 [Compound 71, (2R)-2-(2-chlorophenyl)-3-hydroxy-1-{2-[4-methyl-1-(2,2,2-trifluoroethyl)pyrazol-3-ylsulfonyl]-4H,6H-pyrrolo[3,4-c]pyrazol-5-yl}propan-1-one]"
91,164,–,"O=C([C@@H](CO)c1ccccc1Cl)N1Cc2cn(S(=O)(=O)c3cnn(CCF)c3)nc2C1 [Compound 91, (2R)-2-(2-chlorophenyl)-1-{2-[1-(2-fluoroethyl)pyrazol-4-ylsulfonyl]-4H,6H-pyrrolo[3,4-c]pyrazol-5-yl}-3-hydroxypropan-1-one]"
34,18,–,"CCn1cc(S(=O)(=O)n2cc3c(n2)CN(C(=O)[C@H](CO)c2ccccc2)C3)c(C(F)(F)F)n1 [Compound 94, (2S)-1-{2-[1-ethyl-3-(trifluoromethyl)pyrazol-4-ylsulfonyl]-4H,6H-pyrrolo[3,4-c]pyrazol-5-yl}-3-hydroxy-2-phenylpropan-1-one]"
2900,15,–,"CCn1cc(S(=O)(=O)n2cc3c(n2)CN(C(=O)[C@@H](CO)c2ccccc2)C3)c(C(F)(F)F)n1 [Compound 95, (2R)-1-{2-[1-ethyl-3-(trifluoromethyl)pyrazol-4-ylsulfonyl]-4H,6H-pyrrolo[3,4-c]pyrazol-5-yl}-3-hydroxy-2-phenylpropan-1-one]"
130,125,–,"O=C([C@@H](CO)c1ccccc1F)N1Cc2cn(S(=O)(=O)c3cnn(CCF)c3)nc2C1 [Compound 35, (2R)-1-[2-[1-(2-fluoroethyl)pyrazol-4-ylsulfonyl]-4H,6H-pyrrolo[3,4c]pyrazol-5-yl]-2-(2-fluorophenyl)-3-hydroxypropan-1-one]"
17,66,–,"O=C([C@H](CO)c1cccc(F)c1F)N1Cc2cn(S(=O)(=O)c3cnn(CC(F)(F)F)c3)nc2C1 [Compound 73, (2S)-2-(2,3-difluorophenyl)-3-hydroxy-1-{2-[1-(2,2,2-trifluoroethyl)pyrazol-4-ylsulfonyl]-4H,6H-pyrrolo[3,4-c]pyrazol-5-yl}propan-1-one]"
580,111,–,"O=C([C@@H](CO)c1ccccc1Cl)N1Cc2cn(S(=O)(=O)c3cnn(CC(F)(F)F)c3)nc2C1 [Compound 48, (2R)-2-(2-chlorophenyl)-3-hydroxy-1-[2-[1-(2,2,2-trifluoroethyl)pyrazol-4-ylsulfonyl]-4H,6H-pyrrolo[3,4-c]pyrazol-5-yl]propan-1-one]"
260,108,–,"O=C([C@@H](CO)c1cccc(F)c1F)N1Cc2cn(S(=O)(=O)c3cnn(CC(F)F)c3)nc2C1 [Compound 54, (2R)-1-{2-[1-(2,2-difluoroethyl)pyrazol-4-ylsulfonyl]-4H,6H-pyrrolo[3,4-c]pyrazol-5-yl}-2-(2,3-difluorophenyl)-3-hydroxypropan-1-one]"
–,69,15,"O=C([C@H](CO)c1ccccc1)N1Cc2cn(S(=O)(=O)c3cnn(CC(F)(F)F)c3)nc2C1 [Compound 83, (2S)-3-hydroxy-2-phenyl-1-{2-[1-(2,2,2-trifluoroethyl)pyrazol-4-ylsulfonyl]-4H,6H-pyrrolo[3,4-c]pyrazol-5-yl}propan-1-one]"
